What was measured:
[1] = system: ELEIN; assay: Post-emergence application in field trials (Examples 2 and 3); assay type: in vivo, Eleusine indica
Procedure: (§1) In the examples below, using the method of S. R. Colby (1967) “Calculating synergistic and antagonistic responses of herbicide combinations”, Weeds 15, p. 22ff., the value E, which is expected if the activity of the individual active compounds is only additive, was calculated.
(§2) [formula] • where • X=percent activity using active herbicide A at an application rate a; • Y=percent activity using active saflufenacil at an application rate b; • E=expected activity (in %) by A+B at application rates a+b.
(§3) If the value found experimentally is higher than the value E calculated according to Colby, a synergistic effect is present.
(§4) On field test sites, natural weed infestation or seeded weeds were treated post-emergence of the weeds.
(§5) For the post emergence treatment, the weedy plants were treated as indicated below. The herbicidal compositions were, together with the adjuvant(s) as indicated, suspended or emulsified in water (200 l/ha unless indicated otherwise) as distribution medium and sprayed with commercial flat fan nozzles.
(§6) In the following experiments, the herbicidal activity for the individual herbicidal compositions (solo and mixture applications) was assessed the indicated days after treatment (DAT). The assessments for the damage on undesired weeds caused by the composition was carried out using a scale from 0 to 100%, compared to the untreated control plants. Here, 0 means no damage and 100 means complete destruction of the plants.
as §5, with “I/ha” for “l/ha”

[2] = system: STEME; assay: as above; assay type: in vivo, Stellaria media; conditions: 21 DAT, growth stage 63-67, height 7-18 cm, 140 l/ha water, 1% MSO + 2.5% ammoniumsulfate
Procedure: as §1, §2, §3, §4, §5
as §6, with “Here, 0 means no damage and 100 means complete destruction of the plants.” left out

[3] = system: POAAN; assay: as above; assay type: in vivo, Poa annua
Procedure: as §1, §2, §3, §4, §5, §6
as §5, with “I/ha” for “l/ha”

[4] = system: ECHCG; assay: as above; assay type: in vivo, Echinocloa crus-galli
Procedure: as §1, §2, §3, §4, §5, §6
as §5, with “I/ha” for “l/ha”

[5] = system: ERICA; assay: Post-emergence application in greenhouse trials; assay type: in vivo, Erigeron canadensis; conditions: 21 DAT, growth stage 31, saflufenacil as commercial 342 g/l SC formulation
Procedure: as §1, §2, §3
(§7) The culture containers used were plastic pots containing loamy sand with approximately 3.0% of humus as substrate. The seeds of the test plants were sown separately for each species.
(§8) For the post-emergence treatment, the test plants were grown to a plant height of from 3 to 15 cm, depending on the plant habit, and only then treated with the active compounds which had been suspended or emulsified in water. To this end, the test plants were either sown directly, and grown in the same containers, or they were first grown separately as seedlings and transplanted into the test containers a few days prior to treatment.
(§9) Depending on the species, the plants were kept at 10-25° C. and 20-35° C., respectively.
(§10) The test period extended over 2 to 4 weeks. During this time, the plants were tended and their response to the individual treatments was evaluated.
(§11) Evaluation was carried out using a scale from 0 to 100. 100 means no emergence of the plants, or complete destruction of at least the above-ground parts, and 0 means no damage or normal course of growth. A good herbicidal activity is given at values of at least 70, and very good herbicidal activity is given at values of at least 85.
(§12) Unless indicated otherwise, herbicide A and saflufenacil were formulated (50 g/I) and applied with addition of 1% MSO (methylated seed oil) as adjuvant. In the greenhouse trials, the solvent used was water (200 I/ha).

[6] = system: SETFA; assay: Post-emergence application in greenhouse trials; assay type: in vivo, Setaria faberi; conditions: 7 DAT, growth stage 13, 1% MSO
Procedure: as §1, §2, §3, §7, §8, §9, §10, §11, §12

[7] = system: BRADC; assay: Post-emergence application in greenhouse trials; assay type: in vivo, Brachiaria decumbens; conditions: growth stage 12, saflufenacil as commercial 342 g/l SC formulation
Procedure: as §1, §2, §3, §7, §8, §9, §10, §11, §12

[8] = system: SETIT; assay: Post-emergence application in field trials (Examples 2 and 3); assay type: in vivo, Setaria italica; conditions: height 21-31 cm, 22 DAT, 1% v/v MSO
Procedure: as §1, §2, §3, §4, §5
as §6, with “Here, 0 means no damage and 100 means complete destruction of the plants.” left out

[9] = system: CYPES; assay: as above; assay type: in vivo, Cyperus esculentus; conditions: 21 DAT, height 15-23 cm, 140 l/ha water, 1% MSO + 2.5% ammoniumsulfate
Procedure: as §1, §2, §3, §4, §5
as §6, with “Here, 0 means no damage and 100 means complete destruction of the plants.” left out

[10] = system: AMATA; assay: Post-emergence application in greenhouse trials; assay type: in vivo, Amaranthus tamariscinus; conditions: 20 DAT, growth stage 14, 1% MSO
Procedure: as §1, §2, §3, §7, §8, §9, §10, §11, §12

[11] = system: CHEAL; assay: Post-emergence application in greenhouse trials; assay type: in vivo, Chenopodium album; conditions: 21 DAT, growth stage 51, saflufenacil as commercial 342 g/l SC formulation
Procedure: as §1, §2, §3, §7
as §8, with “treatment. […]” for “treatment.”
(§13) The test period extended over 2 to 4 weeks. During this time, the plants were tended and their response to the individual treatments was evaluated. […]

[12] = system: ALOMY; assay: Post-emergence application in greenhouse trials; assay type: in vivo, Alopercurus myosuroides; conditions: 7 DAT, growth stage 21, saflufenacil as commercial 342 g/l SC formulation
Procedure: as §1, §2, §3, §7
as §8, with “treatment. […]” for “treatment.”
as §13

[13] = system: ELEIN; assay: Post-emergence application in greenhouse trials; assay type: in vivo, Eleusine indica; conditions: 21 DAT, growth stage 21, saflufenacil as commercial 342 g/l SC formulation
Procedure: as §1, §2, §3, §7
as §8, with “treatment. […]” for “treatment.”
as §13

[14] = system: DIGSA; assay: Post-emergence application in field trials (Examples 2 and 3); assay type: in vivo, Digitaria sanguinales
Procedure: as §1, §2, §3, §4, §5, §6
as §5, with “I/ha” for “l/ha”

## CC(C)N(C)S(=O)(=O)NC(=O)c1cc(-n2c(=O)cc(C(F)(F)F)n(C)c2=O)c(F)cc1Cl [B-1, saflufenacil]
[1]; B-1 12.5 g ai/ha, 21 DAT, height 1-15 cm, 140 l/ha water, 1% MSO + 2.5% ammoniumsulfate
  % Herbicidal activity: 19%
[1]; B-1 25 g ai/ha, 19 DAT, growth stage 24, 0.5% MSO
  % Herbicidal activity: 0%
[1]; B-1 25 g ai/ha, 21 DAT, height 7-10 cm, 1% v/v MSO and 1% w/v ammoniumsulfate
  % Herbicidal activity: 0%
[1]; B-1 25 g ai/ha, 21 DAT, height 15-20 cm, 1% v/v MSO and 1% w/v ammoniumsulfate
  % Herbicidal activity: 0%
[2]; B-1 12.5 g ai/ha
  % Herbicidal activity: 53%
[3]; B-1 12.5 g ai/ha, 21 DAT, growth stage 55-65, height 10-15 cm, field, 140 l/ha water, 1% MSO + 2.5% ammoniumsulfate
  % Herbicidal activity: 18%
[3]; POAAN, height 2.5-4 cm, B-1 solo 25 g ai/ha, 7 DAT, 1% v/v MSO
  % Herbicidal activity: 12%
[4]; B-1 12.5 g ai/ha, 14 DAT, growth stage 14-19, height 2-8 cm, field, 140 l/ha water, 1% MSO + 2.5% ammoniumsulfate
  % Herbicidal activity: 40%
[4]; B-1 25 g ai/ha, 21 DAT, height 12.5-30 cm, field, 1% v/v MSO and 1% w/v ammoniumsulfate
  % Herbicidal activity: 23%
[4]; ECHCG, growth stage 21-23, height 43-44 cm, B-1 solo 25 g ai/ha, 21 DAT, 1% Dash ® HC
  % Herbicidal activity: 27%
[5]; B-1 3.12 g ai/ha
  % Herbicidal activity: 30%
[6]; B-1 0.5 g ai/ha
  % Herbicidal activity: 10%
[6]; B-1 0.8 g ai/ha
  % Herbicidal activity: 15%
[6]; B-1 0.9 g ai/ha
  % Herbicidal activity: 15%
[6]; B-1 1.1 g ai/ha
  % Herbicidal activity: 35%
[7]; B-1 3.12 g ai/ha, 7 DAT
  % Herbicidal activity: 40%
[7]; B-1 3.12 g ai/ha, 21 DAT
  % Herbicidal activity: 25%
[8]; B-1 solo 25 g ai/ha
  % Herbicidal activity: 23%
[9]; B-1 12.5 g ai/ha
  % Herbicidal activity: 25%
[10]; B-1 0.2 g ai/ha
  % Herbicidal activity: 70%
[10]; B-1 0.3 g ai/ha
  % Herbicidal activity: 85%
[11]; B-1 3.12 g ai/ha
  % Herbicidal activity: 85%
[12]; B-1 3.12 g ai/ha
  % Herbicidal activity: 25%
[13]; B-1 3.12 g ai/ha
  % Herbicidal activity: 30%
[14]; B-1 12.5 g ai/ha, 21 DAT, height 3-12 cm, 140 l/ha water, 1% MSO + 2.5% ammoniumsulfate
  % Herbicidal activity: 20%
[14]; B-1 25 g ai/ha, 19 DAT, growth stage 13-19, height 2.5-7.5 cm, 1% v/v MSO and 1% w/v ammoniumsulfate
  % Herbicidal activity: 23%

## CCOC(=O)COc1ccccc1Oc1nc(-n2c(=O)cc(C(F)(F)F)n(C)c2=O)c(F)cc1Cl [A-1, ethyl 2-[2-[[3-chloro-5-fluoro-6-[3-methyl-2,6-dioxo-4-(trifluoromethyl)pyrimidin-1-yl]-2-pyridyl]oxy]phenoxy]acetate]
[1]; A-1 12.5 g ai/ha, 21 DAT, height 1-15 cm, 140 l/ha water, 1% MSO + 2.5% ammoniumsulfate
  % Herbicidal activity: 49%
[1]; A-1 12.5 g ai/ha, 21 DAT, height 7-10 cm, 1% v/v MSO and 1% w/v ammoniumsulfate
  % Herbicidal activity: 18%
[1]; A-1 12.5 g ai/ha, 21 DAT, height 15-20 cm, 1% v/v MSO and 1% w/v ammoniumsulfate
  % Herbicidal activity: 27%
[1]; A-1 25 g ai/ha, 19 DAT, growth stage 24, 0.5% MSO
  % Herbicidal activity: 68%
[1]; A-1 25 g ai/ha, 21 DAT, height 7-10 cm, 1% v/v MSO and 1% w/v ammoniumsulfate
  % Herbicidal activity: 78%
[1]; A-1 25 g ai/ha, 21 DAT, height 15-20 cm, 1% v/v MSO and 1% w/v ammoniumsulfate
  % Herbicidal activity: 55%
[1]; A-1 50 g ai/ha, 19 DAT, growth stage 24, 0.5% MSO
  % Herbicidal activity: 73%
[2]; A-1 12.5 g ai/ha
  % Herbicidal activity: 83%
[3]; A-1 12.5 g ai/ha, 21 DAT, growth stage 55-65, height 10-15 cm, field, 140 l/ha water, 1% MSO + 2.5% ammoniumsulfate
  % Herbicidal activity: 33%
[3]; POAAN, height 2.5-4 cm, A-1 solo 12.5 g ai/ha, 7 DAT, 1% v/v MSO
  % Herbicidal activity: 83%
[3]; POAAN, height 2.5-4 cm, A-1 solo 25 g ai/ha, 7 DAT, 1% v/v MSO
  % Herbicidal activity: 88%
[4]; A-1 12.5 g ai/ha, 14 DAT, growth stage 14-19, height 2-8 cm, field, 140 l/ha water, 1% MSO + 2.5% ammoniumsulfate
  % Herbicidal activity: 75%
[4]; A-1 25 g ai/ha, 21 DAT, height 12.5-30 cm, field, 1% v/v MSO and 1% w/v ammoniumsulfate
  % Herbicidal activity: 58%
[4]; ECHCG, growth stage 21-23, height 43-44 cm, A-1 solo 30 g ai/ha, 21 DAT, 1% Dash ® HC
  % Herbicidal activity: 52%
[5]; A-1 1.56 g ai/ha
  % Herbicidal activity: 10%
[5]; A-1 3.12 g ai/ha
  % Herbicidal activity: 10%
[5]; A-1 6.25 g ai/ha
  % Herbicidal activity: 30%
[6]; A-1 0.2 g ai/ha
  % Herbicidal activity: 35%
[6]; A-1 0.3 g ai/ha
  % Herbicidal activity: 55%
[6]; A-1 0.4 g ai/ha
  % Herbicidal activity: 65%
[6]; A-1 0.5 g ai/ha
  % Herbicidal activity: 80%
[7]; A-1 1.56 g ai/ha, 21 DAT
  % Herbicidal activity: 75%
[7]; A-1 3.12 g ai/ha, 7 DAT
  % Herbicidal activity: 85%
[7]; A-1 3.12 g ai/ha, 21 DAT
  % Herbicidal activity: 85%
[8]; A-1 solo 40 g ai/ha
  % Herbicidal activity: 83%
[9]; A-1 12.5 g ai/ha
  % Herbicidal activity: 47%
[10]; A-1 0.2 g ai/ha
  % Herbicidal activity: 75%
[10]; A-1 0.3 g ai/ha
  % Herbicidal activity: 75%
[11]; A-1 3.12 g ai/ha
  % Herbicidal activity: 65%
[12]; A-1 3.12 g ai/ha
  % Herbicidal activity: 70%
[13]; A-1 3.12 g ai/ha
  % Herbicidal activity: 80%
[14]; A-1 12.5 g ai/ha, 19 DAT, growth stage 13-19, height 2.5-7.5 cm, 1% v/v MSO and 1% w/v ammoniumsulfate
  % Herbicidal activity: 87%
[14]; A-1 12.5 g ai/ha, 21 DAT, height 3-12 cm, 140 l/ha water, 1% MSO + 2.5% ammoniumsulfate
  % Herbicidal activity: 50%
